Laboratory results from article PMC12442081, “Combating Fuel Biocontamination: Tailored Antimicrobial Peptides and an Innovative Delivery Strategy” (ACS Applied Bio Materials, 2025).
Where no end group is shown, it is not given here.

Key:
[1] = system: Macrococcus caseolyticus (MC); experiment: Effectiveness of peptides on spiked fuel samples (aqueous layer); format: cell-based; parameters: key: (+) =1 (implying peptide activity in fuel environment); (X) = 0 (implying no activity in the desired range, indicated by microbial proliferation); Fuel x = -1(implying no activity in fuel environment); details: initial screening in spiked fuel
Description: (§1) To study the partitioning of microbes in fuel tanks, filter-sterilized fuel was mixed with BH medium in a 1:1 (v/v) ratio. The inoculum was added to the aqueous phase at the bottom to simulate growth in the aqueous layer of fuel tanks and incubated aerobically at 30 °C for 30 days. Visible growth was assessed, and aliquots from both the aqueous and fuel phases were plated on nutrient agar plates to evaluate microbial growth. Peptides were initially added to the aqueous layer of microbially spiked fuel samples for screening the effectiveness in the fuel environment. The study was further extended over a longer duration, and incubated under aerobic conditions at 30 °C for 30 days. Microbial growth was monitored at regular intervals by plating aliquots from the aqueous layer on the nutrient agar plates.
(§2) The engineered peptides were administered at their respective MICs to the aqueous layer of simulated fuel samples, and samples from both the aqueous and solvent (fuel) layers were removed at intervals of 7, 14, 21, and 30 days and plated on LBA plates to assess cell viability (Table S5).

[2] = system: Pseudomonas aeruginosa (PA); experiment: as above; format: cell-based; parameters: key: (+) =1 (implying peptide activity in fuel environment); (X) = 0 (implying no activity in the desired range, indicated by microbial proliferation); Fuel x = -1(implying no activity in fuel environment); details: initial screening in spiked fuel
Description: as §1, §2

Roseomonas mucosa (RM) = experiment: as above; format: cell-based; parameters: key: (+) =1 (implying peptide activity in fuel environment); (X) = 0 (implying no activity in the desired range, indicated by microbial proliferation); Fuel x = -1(implying no activity in fuel environment); details: initial screening in spiked fuel
Description: as §1, §2

Hormoconis resinae (HR) = experiment: as above; format: cell-based; parameters: key: (+) =1 (implying peptide activity in fuel environment); (X) = 0 (implying no activity in the desired range, indicated by microbial proliferation); Fuel x = -1(implying no activity in fuel environment); details: initial screening in spiked fuel
Description: as §1, §2

[3] = system: Bacillus licheniformis (BL); experiment: as above; format: cell-based; parameters: key: (+) =1 (implying peptide activity in fuel environment); (X) = 0 (implying no activity in the desired range, indicated by microbial proliferation); Fuel x = -1(implying no activity in fuel environment); details: initial screening in spiked fuel
Description: as §1, §2

Kocuria rosea (KR) = experiment: as above; format: cell-based; parameters: key: (+) =1 (implying peptide activity in fuel environment); (X) = 0 (implying no activity in the desired range, indicated by microbial proliferation); Fuel x = -1(implying no activity in fuel environment); details: initial screening in spiked fuel
Description: as §1, §2

[4] = system: Micrococcus yunnanensis (MY); experiment: as above; format: cell-based; parameters: key: (+) =1 (implying peptide activity in fuel environment); (X) = 0 (implying no activity in the desired range, indicated by microbial proliferation); Fuel x = -1(implying no activity in fuel environment); details: initial screening in spiked fuel
Description: as §1, §2

[5] = system: Dermacoccus nishinomiyaensis (DN); experiment: as above; format: cell-based; parameters: key: (+) =1 (implying peptide activity in fuel environment); (X) = 0 (implying no activity in the desired range, indicated by microbial proliferation); Fuel x = -1(implying no activity in fuel environment); details: initial screening in spiked fuel
Description: as §1, §2

[6] = system: Sphingomonas paucimobilis (SP); experiment: as above; format: cell-based; parameters: key: (+) =1 (implying peptide activity in fuel environment); (X) = 0 (implying no activity in the desired range, indicated by microbial proliferation); Fuel x = -1(implying no activity in fuel environment); details: initial screening in spiked fuel
Description: as §1, §2

[7] = HPLC retention time as a function of peptide hydrophobicity; format: physicochemical; details: chromatographic, Polaris 5 C18-A reverse phase, 0.1% TFA water / 0.1% TFA acetonitrile gradient, 30 min, 300 μM peptide
Description: The purity of the peptides was ascertained by high-performance liquid chromatography (HPLC) using Polaris 5 C18-A […] × 4.6 mm reverse phase Zorbax columns from Agilent Technologies. The buffer system contained 0.1% (v/v) TFA in 100% water and 0.1% (v/v) TFA in 100% acetonitrile. Each peptide sample contained 300 μM peptides dissolved in an acetonitrile–water (1:4) mixture. A constant gradient of the two solvent systems was used to generate the chromatogram for 30 min after sample injection.

[8] = system: Roseomonas mucosa (RM) ATCC BAA-692; format: cell-based
Description: (§3) All of the bacterial species were grown overnight at 37 °C in LB broth. 10^7 CFU/mL of cells were resuspended in fresh culture and grown until the mid log phase. , The bacterial cells were adjusted to a concentration of 5 × 10^5 CFU/mL to quantify the MIC. Equal volumes of the respective bacterial cultures were incubated with the serially diluted peptides in 96-well microtiter plate and incubated overnight at 37 °C in ambient air. Microorganisms without peptides were treated as the positive control, while uninoculated broth was used as the negative control. The MIC was taken as the lowest peptide concentration at which observable bacteria growth was inhibited, as measured by a microplate reader (Biotek Synergy H1 microplate reader). Experiments were performed in triplicates, and the mean MIC values were determined. A similar study was performed to understand the effect of peptide purity, i.e., ranging from 70 to 95%, on the peptide MIC.

[9] = system: Dermacoccus nishinomiyaensis (DN) ATCC 29093; format: cell-based
Description: as §3

[10] = system: Macrococcus caseolyticus (MC) ATCC 13548; format: cell-based
Description: as §3

[11] = system: Bacillus licheniformis (BL) ATCC 14580; format: cell-based; details: ATCC 14580
Description: as §3

[12] = system: Kocuria rosea (KR) ATCC 186; format: cell-based
Description: as §3

[13] = system: Sphingomonas paucimobilis (SP); format: cell-based
Description: as §3

[14] = system: microbial clusters MY, KR, DN, MC, BL, RM, SP, PA, HR; experiment: Broad-spectrum activity score (in-house scoring matrix); details: sum over 9 microbial clusters: (+) = 1, (X) = 0, Fuel x = -1
Description: Table S4. Summarizing the broad-spectrum activity of the peptides, considering the MIC value/ efficacy to control microbial growth upon fuel co-incubation
Peptides Bacterial clusters Fungal
Actinobacteria Firmicutes Proteobacteria Asco- […]
Peptides identified based on the scoring matrix, where (+) =1 (implying peptide activity in fuel environment); (X) = 0 (implying no activity in the desired range, indicated by microbial proliferation); Fuel x = -1(implying no activity in fuel environment).
Clearly, P17 is the best performing peptide in vitro across diverse microbial phyla as well as when incubated in the fuel environment. Based on the activity of the selected peptides, the best

[15] = system: Pseudomonas aeruginosa (PA) ATCC 39327; format: cell-based; details: ATCC 39327
Description: as §3

[16] = system: Micrococcus yunnanensis (MY) ATCC 12698; format: cell-based
Description: as §3

[17] = system: Hormoconis resinae (HR) ATCC 20267; format: cell-based
Description: as §3
The same experimental procedures that were conducted for the antibacterial assay were used to determine the MIC of the peptides against the fungal strain, H. resinae.

Row | Molecule | activity considering MIC value/efficacy upon fuel co-incubation [1] | activity considering MIC value/efficacy upon fuel co-incubation [2] | activity considering MIC value/efficacy upon fuel co-incubation (Roseomonas mucosa (RM)) | activity considering MIC value/efficacy upon fuel co-incubation (Hormoconis resinae (HR)) | activity considering MIC value/efficacy upon fuel co-incubation [3] | activity considering MIC value/efficacy upon fuel co-incubation (Kocuria rosea (KR)) | activity considering MIC value/efficacy upon fuel co-incubation [4] | activity considering MIC value/efficacy upon fuel co-incubation [5] | activity considering MIC value/efficacy upon fuel co-incubation [6] | R t, retention time of peptide on HPLC column as a function of peptide hydrophobicity [7] [min] | MIC [8] [µM] | MIC [9] [µM] | MIC [10] [µM] | MIC [11] [µM] | MIC [12] [µM] | MIC [13] [µM] | Score [14] | MIC [15] [µM] | MIC [16] [µM] | MIC [17] [µM]
1 | ILPWKWPWWPWRK [P2] | + | X | Fuel x | X | + | + | X | Fuel x | + | 12.624 | 0.9 | 0.9 | 1.9 | 0.9 | 0.9 | 0.9 | 2 |  |  | 
2 | ILPWKWPWFPWRR [P6] | X | X | X | Fuel x | Fuel x | Fuel x | + | Fuel x | X | 12.299 |  | 0.9 |  | 0.9 | 0.9 | 15.625 | -3 | 7.8 | 0.9 | 0.9
3 | CC[C@H](C)[C@H](N)C(=O)N[C@H](C(=O)N1CCC[C@H]1C(=O)N[C@@H](Cc1c[nH]c2ccccc12)C(=O)N[C@@H](CCCCN)C(=O)N[C@@H](Cc1c[nH]c2ccccc12)C(=O)N1CCC[C@H]1C(=O)N[C@@H](Cc1c[nH]c2ccccc12)C(=O)N[C@@H](Cc1c[nH]c2ccccc12)C(=O)N1CCC[C@H]1C(=O)N[C@@H](Cc1c[nH]c2ccccc12)C(=O)N[C@@H](CCCNC(=N)N)C(=O)N[C@@H](CCCNC(=N)N)C(=O)O)[C@@H](C)CC [P13] | + | X | X | Fuel x | + | Fuel x | + | X | + | 12.084 |  |  | 3.9 | 3.9 | 3.9 | 0.9 | 2 | 7.8 | 0.9 | 7.8
4 | ILPWKWVWWPWRR [P8] | X | X | X | X | + | X | + | Fuel x | + | 12.168 |  | 0.9 |  | 1.9 |  | 3.91 | 2 | 15.625 | 0.9 | 31.25
5 | ILPWKWPWWVWRR [P5] | X | X | X | X | + | Fuel x | + | + | + | 12.045 |  | 0.9 |  | 0.9 | 0.9 | 0.9 | 3 | 31.25 | 0.9 | 62.5
